Reference: patent publication US20060135773A1, “Trisubstituted nitrogen modulators of tyrosine phosphatases” (priority 2004, published 2006)

target: T1, PTP-1B (Homo sapiens, UniProt P18031); assay: pNPP tyrosine phosphatase inhibition assay, PTP-1B; format: biochemical; settings: pNPP assay, PTP-1B; read-out: Activity Class (IC50 ranges)
T1 construct: PTP-1B (purified, 1 mg/mL) as a 1:250 dilution
T1 sequence (P18031 1-321 limits assumed): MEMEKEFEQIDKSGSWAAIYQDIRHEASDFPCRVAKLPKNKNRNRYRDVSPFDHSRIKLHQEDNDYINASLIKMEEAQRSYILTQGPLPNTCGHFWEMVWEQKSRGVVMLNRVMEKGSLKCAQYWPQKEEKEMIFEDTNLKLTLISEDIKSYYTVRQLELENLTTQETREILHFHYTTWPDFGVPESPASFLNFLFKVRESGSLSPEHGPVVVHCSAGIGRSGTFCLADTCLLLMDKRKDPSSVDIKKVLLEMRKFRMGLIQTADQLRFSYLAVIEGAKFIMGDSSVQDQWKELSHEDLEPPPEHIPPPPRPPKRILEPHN
Description: The compounds provided herein are evaluated for biological activity as inhibitors of PTP-1B using, for example, a pNPP assay can be used to screen compounds for tyrosine phosphatase inhibitory activity as described in the Examples.
A 5× stock of pNPP (p-nitrophenol phosphate) substrate is prepared as 50 mM pNPP in assay buffer. Various tyrosine phosphatase solutions can be prepared as follows: • PTP-1B (purified, 1 mg/mL) as a 1:250 dilution (to a final concentration of 4:g/mL); • TC-PTP (NEB, 1000 units in 100:L) as a 1:50 dilution (to a final concentration of 2U/10:L (4:g/mL)); • CD45 (Calbiochem, 20:g, 400 units in 100:L) as a 1:50 dilution (to a final concentration of 0.8U/10:L (4:g/mL)); • LAR (NEB, 1000 units in 200:L) as a 1:75 dilution (to a final concentration of 0.7U/10:L (4:g/mL)); and • PTP-β (UBI, #14-350, 10,000 units, 40:g/571:L) as a 1:17.5 dilution (to a final concentration of 10U/10:L (4:g/mL));
The compound to be tested is prepared as 1:16.7 and 1:50 dilutions from stock in a total volume of […] DMSO to give final concentrations of 626 and 200:M. The reaction mixtures are prepared in a 96-well microtiter plate (on ice) as 55:L assay buffer, 5:L of the diluted compound (to a final concentration of 31.3 and 10:M), 20:L of the pNPP substrate solution (to a final concentration of 10 mM) and 20:L PTPase in assay buffer. The reactants are mixed well, the plate placed in a water bath at 30° C. and incubated for 10 minutes. The reaction is then terminated by adding 100:L of 2M K2CO3 per well, and the absorbance is measured at 405 nm by conventional means.
Unless otherwise indicated, this assay was used to determine activity for the selected compounds whose activity is provided in Table 1.

Q: Which IC50 does the source give for `COc1ccccc1S(=O)(=O)N(Cc1ccc(S(C)(=O)=O)cc1)Cc1ccc(OCC(=O)O)c(C(=O)O)c1` [Compound 134, 2-Carboxymethoxy-5-{[(4-methanesulfonyl-benzyl)-(2-methoxy-benzenesulfonyl)-amino]-methyl}-benzoic acid] here?
A: Its IC50 is > 25000 nM.

Q: For `CCCc1cc(-c2ccc(CN(Cc3ccc(C(F)(F)P(=O)(O)O)c(Cl)c3)S(=O)(=O)c3ccccc3OC)cc2)cc(C(=O)OC)c1O` [Compound 160, 4′-{[[3-Chloro-4-(difluoro-phosphono-methyl)-benzyl]-(2-methoxy-benzenesulfonyl)-amino]-methyl}-4-hydroxy-5-propyl-biphenyl-3-carboxylic acid methyl ester], which IC50 is on record?
A: Its IC50 is 250 to 499 nM.

Q: Which IC50 does the source give for `COc1ccccc1S(=O)(=O)N(Cc1ccc(C(F)(F)P(=O)(O)O)cc1)Cc1ccc(C(F)(F)P(=O)(O)O)cc1` [Compound 85, [(4-{[[4-(Difluoro-phosphono-methyl)-benzyl]-(2-methoxy-benzenesulfonyl)-amino]-methyl}-phenyl)-difluoro-methyl]-phosphonic acid] here?
A: Its IC50 is 250 to 499 nM.

Q: `O=P(O)(O)C(F)(F)c1ccc(CN(Cc2ccc(C(F)(F)P(=O)(O)O)cc2)S(=O)(=O)C=Cc2ccccc2)cc1` [Compound 75, [(4-{[[4-(Difluoro-phosphono-methyl)-benzyl]-(2-phenyl-ethenesulfonyl)-amino]-methyl}-phenyl)-difluoro-methyl]-phosphonic acid] was tested. Which IC50 did it give?
A: Its IC50 is 250 to 499 nM.

Q: With `O=S(=O)(c1ccccc1Cl)N(Cc1ccc(NS(=O)(=O)C(F)(F)F)cc1)Cc1ccc(Cl)c(Cl)c1` [Compound 87, 2-Chloro-N-(3,4-dichloro-benzyl)-N-(4-trifluoromethanesulfonylamino-benzyl)-benzenesulfonamide] as the molecule, how does the IC50 read?
A: Its IC50 is > 25000 nM.

Q: `CCOC(=O)c1cc(-c2ccc(CN(Cc3ccc(C(F)(F)P(=O)(O)O)c(Cl)c3)S(=O)(=O)c3ccccc3OC)cc2)ccc1Cl` [Compound 175, 4-Chloro-4′-{[[3-chloro-4-(difluoro-phosphono-methyl)-benzyl]-(2-methoxy-benzenesulfonyl)-amino]-methyl}-biphenyl-3-carboxylic acid ethyl ester] was tested. Which IC50 did it give?
A: Its IC50 is 250 to 499 nM.

Q: `O=P(O)(O)C(F)(F)c1ccc(CN(Cc2ccc(C(F)(F)P(=O)(O)O)cc2)S(=O)(=O)Cc2ccccc2)cc1` [Compound 69, {[4-({[4-(Difluoro-phosphono-methyl)-benzyl]-phenylmethanesulfonyl-amino}-methyl)-phenyl]-difluoro-methy}-phosphonic acid] was tested. Which IC50 did it give?
A: Its IC50 is 2500 to 25000 nM.

Q: With `COc1ccccc1S(=O)(=O)N(Cc1ccc(Cl)c(Cl)c1)Cc1ccc(NC(=O)C(=O)O)c(C(=O)O)c1` [Compound 56, 5-{[(3,4-Dichloro-benzyl)-(2-methoxy-benzenesulfonyl)-amino]-methyl}-2-(oxalyl-amino)-benzoic acid] as the molecule, how does the IC50 read?
A: Its IC50 is > 25000 nM.

Q: Which IC50 does the source give for `O=P(O)(O)C(F)(F)c1ccc(CN(Cc2ccc(Cl)c(Cl)c2)S(=O)(=O)c2ccccc2Cl)cc1Br` [Compound 82] here?
A: Its IC50 is 100 to 249 nM.

Q: Which IC50 does the source give for `O=P(O)(O)C(F)(F)c1ccc(CN(Cc2ccc(C(F)(F)P(=O)(O)O)c(Br)c2)S(=O)(=O)c2ccccc2)cc1` [Compound 38, {[4-({Benzenesulfonyl-[4-(difluoro-phosphono-methyl)-benzyl]-amino}-methyl)-2-bromo-phenyl]-difluoro-methyl}-phosphonic acid] here?
A: The IC50 was < 99 nM.

Q: How did the IC50 turn out when `COc1ccccc1S(=O)(=O)N(Cc1ccc(C#N)cc1)Cc1ccc(NS(=O)(=O)C(F)(F)F)cc1` [Compound 117, N-(4-(N-trifluoro-methanesulfonyl-amino]benzyl)-N-(4-cyanobenzyl)-(2-methoxy)benzenesulfonamide] was run?
A: The IC50 was > 25000 nM.

Q: Which IC50 does the source give for `O=P(O)(O)C(F)(F)c1ccc(CN(Cc2ccc(C(F)(F)P(=O)(O)O)cc2)S(=O)(=O)c2ccc(Oc3ccccc3)cc2)cc1` [Compound 70, [(4-{[[4-(Difluoro-phosphono-methyl)-benzyl]-(4-phenoxy-benzenesulfonyl)-amino]-methyl}-phenyl)-difluoro-methyl]-phosphonic acid] here?
A: Its IC50 is 250 to 499 nM.
